Results taken from paper PMC8898184 (Drug Design, Development and Therapy, 2022).

Target: T1, Bovine β-lactoglobulin (BLG) (Bos taurus, UniProt P02754)
T1 sequence (P02754 17-178): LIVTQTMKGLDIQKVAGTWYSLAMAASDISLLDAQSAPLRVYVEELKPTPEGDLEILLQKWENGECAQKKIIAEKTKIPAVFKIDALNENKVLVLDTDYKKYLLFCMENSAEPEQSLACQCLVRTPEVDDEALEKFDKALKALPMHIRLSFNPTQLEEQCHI
Experiment: tryptophan fluorescence quenching
Type: binding
Conditions: PBS, pH 7.4, 37 °C; 5 μM BLG; double-log

CC(=O)Oc1ccccc1C(=O)O [aspirin]
Kb (×10^3 M^-1): 2.051 × 10^3 M^-1
